Series [1] has as its system E. coli BL21 (DE3) expressing pylT, pylS and mtmB1. The series can be described thus: Pyrrolysine-dependent amber suppression (mtmB1 UAG readthrough, anti-MtmB immunoblot). The series is classed as cell-based. The note with it: strain expressing pylT, 1 mM amino acid, 4 h induction. Background: Immunoblotting shows a protein as a band on a membrane.
Excerpt: As a reporter of UAG translation as a sense codon, we introduced the mtmB1 gene into E. coli BL21 (DE3). […] Plasmids were constructed bearing combinations of mtmB1, pylS and/or pylT under the control of the T7 promoter, and transformed into E. coli. […] Total cellular proteins from each strain were then separated by SDS-polyacrylamide-gel electrophoresis and mtmB1 gene products were detected by subsequent immunoblotting with polyclonal antibody specific for purified M. barkeri MtmB.
To test for amber suppression, overnight cultures were grown in Luria-Bertani broth (3 ml) with 100 μg ml^−1 ampicillin. Subsequently, 200 μl was inoculated into 1 ml fresh medium and grown to a D600 of 0.6. […] The mtmB1 gene products in equivalent amounts of lysates were then analysed by immunoblotting of a SDS 12.5% polyacrylamide gel with affinity-purified rabbit anti-MtmB antibody^6. The Rainbow Molecular Weight markers (Amersham Biosciences) were used.
To test for amber suppression, overnight cultures of a strain bearing one of the plasmids were grown in LB broth (3 mL) with 100 ug/ml final ampicillin. Subsequently, 200 μl of each culture was inoculated into 1 ml of fresh LB medium with ampicillin, and grown to an A600 of approximately 0.6. […]
Series [2] concerns the target T1, PylS-His6 (Methanosarcina barkeri, UniProt Q6WRH6).
T1 construct: made in house; host or cells: E. coli BL21 (DE3)
The series can be described thus: Aminoacylation of tRNACUA in acid-urea gels (gel-shift, northern blot). The series is classed as biochemical. The settings on record: for aminoacylation of tRNA^lys in the M. acetivorans tRNA pool: tRNA^lys instead of tRNACUA. An excerpt: Recombinant PylS-His6 was purified by Ni affinity chromatography from lysates of Escherichia coli expressing the recombinant Methanosarcina barkeri pylS gene modified so as to add a carboxy-terminal hexahistidine tag to the gene product. The tRNA pool extracted from Methanosarcina acetivorans or tRNACUA transcribed in vitro was used in charging experiments. Charged and uncharged tRNA species were separated by electrophoresis in a denaturing acid-urea polyacrylamide gel and tRNACUA was specifically detected by northern blotting with an oligonucleotide probe.
The reaction was terminated after 5-30 min at 37° C. with an equal volume of 0.3 M sodium acetate, 8 M urea pH 5.0. Charged and uncharged tRNA were separated by acid-urea acrylamide gel electrophoresis, blotted to nitrocellulose and probed with a 5μ ^32P-end-labelled, 72-base oligonucleotide complementary to tRNA^CUA. Radioactivity was analysed with a STORM Phosphorimager (Amersham Biosciences).
(§1) Aminoacylation assay in acid-urea gels. […] Following incubation at 37° C. for 5 to 30 minutes, the reaction was terminated by addition of an equal volume of 2× loading dye (0.3 M sodium acetate, 8 M urea, pH 5.0) and charged and uncharged tRNA species analysed by acid-urea acrylamide gel electrophoresis following the methods outlined in Jester et al. Samples were electrophoresed in 14% polyacrylamide gels buffered with a 0.3 M sodium acetate-7 M urea solution, pH 5.0, at 50 volts and 4° C. for 24 hours. The same buffer without urea was used in the electrode chambers, and was replaced with fresh buffer every 6-8 hours. Finished gels were transblotted for 2 hours at 40 volts in 4° C. in a blotting solution of 10 mM Tris-acetate, 5 mM sodium acetate, and 0.5 mM EDTA, pH 8.0. The blot was then cross-linked by ultraviolet radiation (15000 μJ/cm2 per side) then prehybrized in 0.25 M sodium phosphate buffer, pH 7.2, and 5.7% SDS for at least 30 minutes. In order to detect charged and uncharged tRNACUA a 72 base oligonucleotide complementary to full length of tRNACUA was labeled with γ-^32P ATP and polynucleotide kinase. The probe was hybridized with the blot overnight at room temperature, then agitated at 22° C. for 5 minute in 10 mM sodium citrate, 150 mM NaCl, 1% SDS, pH 7.0, then agitated with two changes of 5 mM sodium citrate, 75 mM sodium chloride, 1% SDS, pH 7.0, for 5 minutes each. Radioactivity on the blot was imaged and analyzed using a STORM Phosphorimager (Amersham Biosciences).

Another series addresses T2, His6-PylS (Methanosarcina barkeri, UniProt Q6WRH6).
T2 construct: made in house; host or cells: E. coli (inferred from the control with untransformed E. coli)
The experiment in a line: Gel-shift aminoacylation assay with N-terminally His-tagged PylS. The series is classed as biochemical. On the procedure: as §1, with “The probe was hybridized with the blot overnight at room temperature, then agitated at 22° C. for 5 minute in 10 mM sodium citrate, 150 mM NaCl, 1% SDS, pH 7.0, then agitated with two changes of 5 mM sodium citrate, 75 mM sodium chloride, 1% SDS, pH 7.0, for 5 minutes each.” left out

Series [3] concerns the target T1, PylS-His6. The experiment in a line: Pyrrolysine dependent pyrophosphate:ATP exchange. Type of series: biochemical. Details: apparent Vmax: unit not given here. As for the experimental part: As a prerequisite of tRNA aminoacylation, an aminoacyl-adenylate and pyrophosphate are formed from the amino acid and ATP by an aminoacyl-tRNA synthetase. This reversible activation reaction can be assayed by the isotopic exchange of ^32P-pyrophosphate into ATP dependent on the addition of the cognate amino acid for the aminoacyl-tRNA synthetase in question.
The pyrophosphate exchange reaction was essentially performed following the method of Cole and Schimmel. All reactions were performed in duplicate at 37° C. The 100 to 200 μl reactions contained (unless noted) 0.3 to 1 μM PylSHis6. […] The specific activity of the radiolabel was adjusted from 4 to 10 dpm/pmol). The concentration of protein was 0.3 to 1 μM. At specific times, 25 μl aliquots were removed and quenched in 500 μl of a stop solution containing 1.6% (w/v) activated acid-washed charcoal (Sigma Chemical Co., St. Louis, Mo.), 80 mM sodium tetrapyrophosphate, and 3.5% (v/v) perchloric acid. Samples were filtered through Whatman GF/C glass-fiber filters and then the filter was washed three times with 5 ml of 40 mM sodium tetrasodium pyrophosphate solution containing 1.7% perchloric acid (v/v) and once with 5 ml 100% ethanol. Filters were dried at 80° C. for 5 minutes then placed in 20 ml scintillation vials containing 10 ml of Ultima Gold F scintillation cocktail (PerkinElmer), shaken once, and counted in a liquid scintillation analyzer. Identical reactions without amino acid, ATP, or enzyme were also set up as negative controls in duplicate. […] One substrate was kept constant at a concentration higher than its respective apparent Km value.

Series [4] deals with E. coli BW25141(DE3) transformed with pDLGUS. The series can be described thus: beta-glucuronidase activity from uidA gene with UAG codon replacing AAA286. Type of series: cell-based. An excerpt: In order to avoid interference by the residue uidA gene, we employed a strain with most of uidA deleted, E. coli BW25141(DE3). This strain was transformed with pDLGUS, a variant of the pEC03 plasmid in which the mtmB1 gene was removed and the uidA gene introduced in its place.

The next series is described as follows: NMR H/D exchange studies. Type of series: physicochemical. The note with it: rt. On the procedure: Compound 7 (˜4 mg, ˜10 μmol) was dissolved in CD3OD (0.75 mL), and D2O (2 drops) was added. The reaction mixture was kept at rt and monitored by NMR (400 MHz). […] NaOD (30% w/w in D2O, 2 drops) was then added, and the solution monitored by NMR. […] After 25 h, the C5 proton peak completely disappeared.
To rule out the possibility that the loss of the C5 proton peak was due to decomposition, the resulting mixture was evaporated at rt under reduce pressure, and the residue was redissolved in CH3OH and allowed to stir for 1 day. The mixture was then evaporated to dryness in vacuo, and redissolved in CD3OD. The NMR spectrum was quickly taken, and the C5 proton peak was again observed. As before, the C5 proton peak slowly disappeared over a 1-day period.
To evaluate the importance of the imine bond on the acidity of the C5 proton, proline was dissolved in 0.75 mL CD3OD and 0.20 mL D2O and treated with […].

A short description of series [5]: Stability studies of compound 8 to NaOH, LiOH and TFA (TLC). The series is classed as physicochemical. The note with it: rt. On the procedure:
Stability Studies of Compound (8) to NaOH. NaOH (6 M, 20 μL, 0.12 mmol) was added to a solution of compound 8 (0.15 M, 100 μL, 0.015 mmol). The resulting mixture was allowed to react at rt over 3 days, during which the degradation of compound 8 was monitored by a ninhydrin TLC assay (CHCl3-MeOH—NH4OH(aq)=2:2:1).
Stability Studies of Compound (8) to LiOH. Compound 8 (21.9 mg, 84 μmol) was dissolved in water (2 mL) and LiOH.H2O (84.5 mg, 2.0 mmol) was added. This mixture was allowed to react at rt. While initially only starting material was observed by TLC (MeOH-EtOAc=4:1, Rf=0.26), after 24 h two new bands (Rf=0.10, 0.02) appeared. After 5 days, the solution was evaporated to dryness at rt, redissolved in MeOH (0.5 mL), and purified on chromatography silica gel. […] The other new band appears to be a mixture of species based on its NMR and MS data.
Stability Studies of Compound (8) to TFA. Compound 8 (21.7 mg, 0.083 mmol) was dissolved in MeOH (2 mL) and TFA (200 μL) was added. After 1 h, one new band (MeOH-EtOAc=2:1; Rf=0.22) was observed by TLC. The mixture was allowed to react to completion for 2 days at rt. The resulting mixture was evaporated to dryness, dissolved in MeOH (0.5 mL), and subjected to chromatography on silica gel. […] The peak for the C2 imine proton is absent, and the peak for the C5 proton is either absent or shifted.

T1 sequence (Q6WRH6 whole entry): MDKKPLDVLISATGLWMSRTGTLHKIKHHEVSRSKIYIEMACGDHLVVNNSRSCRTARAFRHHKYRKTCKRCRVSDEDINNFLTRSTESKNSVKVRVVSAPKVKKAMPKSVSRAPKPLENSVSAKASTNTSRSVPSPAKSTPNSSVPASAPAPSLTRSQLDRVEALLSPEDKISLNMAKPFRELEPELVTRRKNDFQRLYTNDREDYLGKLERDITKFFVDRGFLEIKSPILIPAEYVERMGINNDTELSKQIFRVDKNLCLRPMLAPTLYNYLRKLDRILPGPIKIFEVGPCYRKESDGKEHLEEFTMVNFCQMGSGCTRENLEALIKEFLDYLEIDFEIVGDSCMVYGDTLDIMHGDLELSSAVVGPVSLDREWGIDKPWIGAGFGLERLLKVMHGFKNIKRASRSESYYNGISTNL
T2 sequence (Q6WRH6 whole entry): as above

For orientation: Km means the concentration of substrate that gives half-maximal velocity. Regarding `C[C@@H]1CC=N[C@H]1C(=O)NCCCC[C@H](N)C(=O)O` [pyrrolysine, lysine in amide linkage with (4R,5R)-4-methyl-pyrroline-5-carboxylate], the “UAG readthrough: expression of 50-kDa MtmB” value in series [1] is listed as “large amounts of 50-kDa MtmB”. Also, the “maximal conversion of deacylated tRNACUA to charged species” value at PylS-His6 [2] (deacylated M. acetivorans cellular tRNA pool, incubation with pyrrolysine, ATP and PylS-His6) stood at 50%. Besides, the “maximum of tRNACUA transcribed in vitro aminoacylated” value on PylS-His6 [2] (in vitro transcribed tRNACUA, synthetic pyrrolysine, ATP-dependent) is 43%. For the same compound, the “aminoacylation of tRNA^lys in the M. acetivorans tRNA pool” value at PylS-His6 [2] is recorded as “does not aminoacylate”. Also, the “lysyl- or pyrrolysyl-tRNA synthetase activity” value at His6-PylS was “does have pyrrolysyl-tRNA synthetase activity”. For the same compound, at PylS-His6 [3] (37° C., pH 7.2, other substrate held constant, read-out: apparent Km), the Km is 53 µM. In addition, the “apparent Vmax” value at PylS-His6 [3] (exchange reaction, 37° C.) came to 120. The “increase of beta-glucuronidase activity” value in series [4] (1 mM synthetic pyrrolysine versus absence of pyrrolysine) is reported as “approximately 100 fold”. Also, the beta-glucuronidase activity in series [4] (induced with IPTG in the presence of 1 mM synthetic pyrrolysine) amounted to 4. umol/min·mg protein.

For `NCCCC[C@H](N)C(=O)O` [lysine, reference compound], the “UAG readthrough: expression of 50-kDa MtmB” value in series [1] was “could not be replaced”. On PylS-His6 [2] (20 canonical amino acids each at 50 μM, or only 50 μM lysine, no pyrrolysine), the “formation of charged tRNACUA species” value is listed as “not formed”. Also, the “aminoacylation of tRNA^lys in the M. acetivorans tRNA pool” value on PylS-His6 [2] is “does not aminoacylate”. Also, the “lysyl- or pyrrolysyl-tRNA synthetase activity” value on His6-PylS was “no lysyl-tRNA synthetase activity was detectable”. In addition, on PylS-His6 [3] (incubation as long as 30 min, canonical 20 amino acids each at 100 μM, or 1 mM lysine), the “isotopic exchange into ATP above background” value is reported as “no detectable isotopic exchange”.

For `COC(=O)[C@H](CCCCNC(=O)[C@@H]1N=CC[C@H]1C)NC(=O)C(F)(F)F` [Compound 7, Nα-Trifluoroacetyl-L-pyrrolysine methyl ester], in “NMR H/D exchange studies” (CD3OD with D2O, 3-day period, no base), the “change in NMR spectrum” value was “No change was observed”. Further, the “time until C5 proton peak completely disappeared (H/D exchange)” value in the series “NMR H/D exchange studies” (CD3OD/D2O with NaOD) is recorded as 25 h.

With `C[C@@H]1CC=N[C@H]1C(=O)NCCCC[C@H](N)C(=O)[O-].[Li+]` [Compound 8, L-Pyrrolysine lithium salt], the “degradation in LiOH observed by TLC” value in series [5] (LiOH in water, after 24 h) is “two new bands”. For the same compound, the “degradation in NaOH monitored by ninhydrin TLC” value in series [5] (NaOH 6 M 20 μL added to 0.15 M solution, over 3 days) is listed as “One new band”. Also, in series [5] (TFA in MeOH, after 1 h), the “degradation in TFA observed by TLC” value is “one new band”.

The values above are taken from patent US20060166319A1 (priority 2004, published 2006).
